Entries after “also recorded” stand apart in the source; their conditions may differ. Like-named read-outs stand apart in the source and are kept apart here.
What was measured:
GFAP = assay: spinal expression of GFAP (astrocyte activation); type: in vivo, mice; details: for GFAP immunoreactivity in superficial layers of the dorsal horn: micrographs
Procedure: Animals were rapidly sacrificed (<1 min) in a CO2 chamber and the dorsal portion of the spinal cord lumbar region enlargement removed and stored at −80° C. until used. Cytosolic and nuclear extracts were prepared as previously described (Bethea et al., 1998), with minor modifications. Tissues from each mouse were suspended in extraction Buffer A (0.2 mM PMSF, […], 20 μM leupeptin, 1 mM sodium orthovanadate), homogenized for two minutes, and centrifuged at 1,000×g for ten minutes at 4° C. Supernatants were collected as the cytosolic fraction. The pellets containing nuclei were re-suspended in Buffer B (1% Triton X-100, 150 mM NaCl, 10 mM TRIS-HCl pH 7.4, 1 mM EGTA, 1 mM EDTA, 0.2 mM PMSF, 20 μm leupeptin, 0.2 mM sodium orthovanadate). After centrifugation for thirty minutes at 15,000×g at 4° C., the supernatants were collected as nuclear extracts and then stored at […] for further analysis. The levels of IκB-α, phospho-NF-κB p65 (serine 536), were quantified in cytosolic fraction from spinal cord tissue, while NF-κB p65 levels were quantified in nuclear fraction.

mice [1] = assay: hot plate, morphine-induced antinociceptive tolerance (Examples 3-5); type: in vivo, Male CD-1 mice; details: for % MPE: n=6
Procedure: Nociceptive thresholds were determined by measuring latencies (in seconds) of mice placed in a transparent glass cylinder on a hot plate (Ugo Basile, Italy) maintained at 52° C. Determination of antinociception was assessed between 7 and 10:00 A.M. All injections were given intra-peritoneally (i.p.) or subcutaneously (s.c.) in a volume of 0.1 and 0.3 ml, respectively, at approximately 7 A.M. and 4 P.M. Responses indicative of nociception included intermittent lifting and/or licking of the hindpaws or escape behavior. […] Results were expressed as percentage of maximum possible antinociceptive effect, which was calculated as follows: (response latency−baseline latency)/(cut-off latency−baseline latency)×100. A cut-off latency of twenty seconds was employed to prevent tissue damage. Ten mice per group were used and all experiments were conducted with the experimentors blinded to treatment conditions. […] The following experimental groups were used: […]
Vehicle (V) Group: In this group, mice were injected twice per day for four days with an i.p, injection of saline and a s.c. injection of saline.

peroxynitrite = assay: 3-nitrotyrosine (NT) staining in dorsal horn as marker of peroxynitrite; type: in vivo, mice
Source text: . Detection of NT in this setting can therefore be reliably used as marker of peroxynitrite. […]; FIG. 8c), evidence of the contribution of ceramide in the production of spinal peroxynitrite.

ceramide synthase = ceramide synthase activity in spinal cord homogenates; type: in vivo, mice
Procedure: About 60 to 80 mg of spinal cord homogenates were incubated with [^3H]-palmytic acid (2.5 μCi/ml, GE Healthcare, England) for one hour. Lipids were extracted with ice-cold methanol containing 2% acetic acid and 5% chloroform and resolved using thin-layer chromatography. Lipids co-migrating with standards were scraped and quantified by […] counting as described elsewhere (Castillo et al., 2007).

mice [2] = type: in vivo, male CD-1 mice
ceramide = assay: immunohistochemistry for ceramide in spinal cord (Example 3)
mice [3] = type: in vivo; details: for % MPE for acute morphine: acute morphine 3 mg/kg s.c. on day five
Iba1 = assay: spinal expression of Iba1 (microglia activation); type: in vivo, mice; details: for Iba1 immunoreactivity in superficial layers of the dorsal horn: micrographs
[4] = acute morphine in tolerant mice vs vehicle

## CN1CC[C@]23c4c5ccc(O)c4O[C@H]2[C@@H](O)C=C[C@H]3[C@H]1C5 [morphine]
GFAP; [4]
  GFAP immunoreactivity in superficial layers of the dorsal horn: increased
GFAP; morphine group, n=5
  spinal expression of GFAP: 7343.95±0.527 densitometry units
Mice [1]; acute morphine 3 mg/kg in vehicle group (saline over four days), hot plate
  percent maximal possible antinociceptive effect: 90-95%
Mice [1]; morphine group (tolerant), acute morphine 3 mg/kg on day five
  % MPE: 10±2%
Mice [1]; repeated administration of morphine (20 mg/kg/d) over four days
  development of antinociceptive tolerance: led to the development of antinociceptive tolerance
Mice [1]; vehicle group (saline four days), acute morphine 3 mg/kg on day five
  % MPE: 96±3%
peroxynitrite; morphine tolerant mice
  NT staining in dorsal horn: appearance of NT staining in tolerant mice
Ceramide synthase; repeated morphine, tolerant mice vs vehicle
  enzymatic activity of ceramide synthase (CS): increased enzymatic activity
Mice [2]; Morphine groups (morphine 50 mg/kg by osmotic minipump), acute morphine 3 mg/kg i.p., tail flick
  % MPE for acute morphine: 15±4 % MPE
Mice [2]; control groups (saline minipump), acute morphine 3 mg/kg i.p., tail flick, day six
  % MPE for acute morphine: 90±5 % MPE
ceramide; repeated morphine, day five
  ceramide staining in dorsal horn, immunohistochemistry: appearance of ceramide in the superficial layers of the dorsal horn; also recorded: marked appearance of positive staining for ceramide
Mice [3]; Control group (saline over four days)
  % MPE for acute morphine: 93±8 % MPE
Mice [3]; Morphine group (morphine 2×10 mg/kg/day over four days)
  % MPE for acute morphine: 20±14 % MPE
Mice [3]; acute morphine 3 mg/kg subcutaneously, forty minutes after dose, hot plate 52° C., n=8
  antinociceptive effect: 99±2%
Iba1; [4]
  Iba1 immunoreactivity in superficial layers of the dorsal horn: increased
Iba1; morphine group, n=5, ±SEM
  spinal expression of IBa1: 541.29±0.073 densitometry units

## CCCC[C@@H](C)[C@@H](OC(=O)C[C@@H](CC(=O)O)C(=O)O)[C@H](C[C@@H](C)C[C@H](O)CCCC[C@@H](O)C[C@H](O)[C@H](C)N)OC(=O)C[C@@H](CC(=O)O)C(=O)O [FB1, Fumonisin B1]
GFAP; 1 mg/kg/d of FB1 with morphine
  GFAP immunoreactivity in superficial layers of the dorsal horn: blocked
GFAP; morphine plus FB1 1 mg/kg/d, n=5, ±SEM
  spinal expression of GFAP (activation of astrocytes): 4627.38±0.483 densitometry units
Mice [1]; co-administered with morphine, FB1 0.1-1 mg/kg/d, myriocin 0.1-0.4 mg/kg/d, D609 10-40 mg/kg/d, n=10
  development of tolerance, dose-dependence: attenuated in a dose-dependent manner
Mice [1]; day five, highest dose of drug, no morphine, n=10
  hot plate latencies following s.c. saline: six and seven
Mice [1]; highest dose over five days: FB1 1 mg/kg/d, myriocin 0.4 mg/kg/d, D609 40 mg/kg/d, n=10
  difference in responses to acute morphine (0.3-3 mg/kg), drug vs vehicle: statistically insignificant
Mice [1]; highest dose, alone
  antinociceptive effects when tested alone: none of FB1, myriocin, or D609 had antinociceptive effects
Mice [1]; tolerant mice, single i.p. dose fifteen minutes before acute morphine 3 mg/kg: FB1 1 mg/kg, myriocin 0.4 mg/kg, D609 40 mg/kg
  % MPE: 7±3%
peroxynitrite; co-administration of morphine with FB1 1 mg/kg/d
  appearance of NT staining: blocked
Ceramide synthase; co-administration of morphine with FB1 1 mg/kg/d, n=10
  increase in CS activity: attenuated as expected the increase in CS activity
Mice [2]; Mor+FB1 groups, FB1 1 mg/kg/day i.p. for six days with morphine minipump
  % MPE for acute morphine: 87±4 % MPE
Mice [2]; control+FB1 groups, FB1 1 mg/kg/day i.p., saline minipump
  % MPE for acute morphine: 85±6 % MPE
ceramide; co-administered with morphine, FB1 1 mg/kg/d, myriocin 0.4 mg/kg/d, D609 40 mg/kg/d
  ceramide immunostaining: attenuated; also recorded: abolished the presence of positive staining for ceramide
Mice [3]; Control+Drug groups, no repeated morphine
  responses to acute morphine in control groups vs control groups treated with drug: similar
Mice [3]; co-administration with morphine, i.p., FB1 1 mg/kg, myriocin 0.2 mg/kg, D609 40 mg/kg
  development of antinociceptive tolerance: prevented the development of antinociceptive tolerance
Mice [3]; drug alone (not shown)
  antinociceptive effects when tested alone: no antinociceptive effects
Iba1; 1 mg/kg/d of FB1 with morphine
  Iba1 immunoreactivity in superficial layers of the dorsal horn: blocked
Iba1; morphine plus FB1 1 mg/kg/d, n=5
  spinal expression of IBa1 (activation of microglial cell): 275.53±0.053 densitometry units

From patent publication US20120328602A1, “COMPOSITIONS AND METHODS FOR TREATING CONDITIONS ASSOCIATED WITH CERAMIDE BIOSYNTHESIS” (priority 2007, published 2012)
